Source: patent publication US6461865B1, “Calreticulin-deficient cells” (priority 1997, dated 2002)

Tests used:
Assay type in all cases: cell-based, mouse
ES cells = assay: Cytosolic calcium measurement (fura-2) in ES cells; settings: Ca2+-free medium
Description: It has been reported that calreticulin can regulate inositol 1,4,5-trisphosphate (InsP3)-mediated calcium signaling in Xenopus oocytes^9. To more specifically examine the role of calreticulin in the storage and mobilization of calcium from InsP3-sensitive stores, we challenged ES cells with lysophosphatidic acid (LPA, 100 nM), which induces InsP3 release12 via heterotrimeric G-protein -mediated activation of phospholipase C. […] The magnitude of this transient was indistinguishable in parental and clone 29 cells (FIG. 4b). […] These observations imply that the stores depleted by LPA represent a subset of the thapsigargin-sensitive compartment.
To measure cytosolic free calcium, the cells were loaded with fura-2 by incubation with 0.5-10 μM of the precursor acetoxymethyl ester for 20 min. at 37° C. Fura-2 ratio fluorescence measurements were performed on a Nikon Diaphot TMD microscope (Nikon Canada) equipped with a 100 W Xenon lamp, a shutter/rotating mirror/fiber optic assembly (RatioMaster, Photon Technologies), a Fluor 40x/1.3 oil-immersion objective and a high-sensitivity photometer (D-104, PTI) interfaced to a 386 computer (NEC) via a 12 bit A/D board (Labmaster, National Instruments). […] The intracellular concentration of fura-2 was measured at the isosbestic wavelength (360 nm) and compared to standards. […]

[1] = system: calreticulin knock-out ES cells; assay: Adhesion of calreticulin knock-out ES cells to fibronectin
Description: FIG. 4E Adhesion assays to Fibronectin as in FIG. 6. Where indicated 100 nM LPA or 100 nM Tg and anti-FNR antiserum (10 μg/ml) were added. Open bars, parental ES cells; closed bars, knock-out ES cells. All data are means +/− SEM of at least 3 experiments. It is conceivable that a transient increase in cytosolic [Ca^2+] shortly after integrin ligand binding is an important part of normal receptor post-occupancy events (eg. increases in avidity, cytoskeletal reorganization). To examine this possibility, we tested whether stimulation of down-stream events in integrin ‘outside-in’ signaling within calreticulin-null cells could compensate for their adhesion defect. […] Although not shown in FIG. 4, the response to LPA was dose-dependent. […] Serum-free adhesion assays are described elsewhere^5. 0.5-1 mg/ml GRGDSP [SEQ ID No: 1] or GRGESP [SEQ. ID No: 2] peptide (Gibco/BRL), 10 μg/ml rabbit anti-fibronectin receptor (Gibco/BRL) or 10 μg/ml rat anti-alpha6 (GoH3, AMAC, Inc.) was added where indicated. For flow cytometric analysis of integrin expression, 1×10^6 cells were incubated on ice for 30 min. with primary antibody; anti-FNR, anti-VNR (Gibco/BRL), anti-alpha6 (GoH3) or anti-alpha429 in PBS/0.1% sodium azide/2.0% fetal bovine serum. […] Cells were fixed in PBS/1.0% paraformaldehyde, pelleted, resuspended in PBS and analyzed on a FACScan (Becton Dickinson Immunocytometry Systems).

wild-type ES cells = assay: Serum-free cell attachment assay on fibronectin, wild-type ES cells; settings: peptide 0.5-1 mg/ml, antiserum 10 μg/ml
Description: The adhesive capacities of the ES cell clones were assessed by quantitative cell attachment assays on fibronectin and laminin under serum-free conditions. […] ES cells lacking calreticulin also were impaired in their ability to adhere to anti-alpha5 beta1 integrin antibodies (FIG. 2a). The heterozygous clone (#34) was generally intermediate in its level of adhesion. None of the clones tested adhered to vitronectin (FIG. 2a). […] To ensure that the observed differences in cell adhesion were not due to differences in the level of expression of the relevant integrins, the cell surface levels of alpha5 beta1, alpha4, alpha6 and alphav beta3 integrins were assessed by flow cytometry. All clones tested expressed similar levels of integrin subunits (FIG. 2c).
Serum-free adhesion assays are described elsewhere^5. 0.5-1 mg/ml GRGDSP [SEQ ID No: 1] or GRGESP [SEQ. ID No: 2] peptide (Gibco/BRL), 10 μg/ml rabbit anti-fibronectin receptor (Gibco/BRL) or 10 μg/ml rat anti-alpha6 (GoH3, AMAC, Inc.) was added where indicated. For flow cytometric analysis of integrin expression, 1×10^6 cells were incubated on ice for 30 min. with primary antibody; anti-FNR, anti-VNR (Gibco/BRL), anti-alpha6 (GoH3) or anti-alpha429 in PBS/0.1% sodium azide/2.0% fetal bovine serum. […] Cells were fixed in PBS/1.0% paraformaldehyde, pelleted, resuspended in PBS and analyzed on a FACScan (Becton Dickinson Immunocytometry Systems).

Q: Which “Cytosolic [Ca2+]i transient” value (ES cells; 100 nM, parental and clone 29 cells) does the source give for lysophosphatidic acid [LPA] here?
A: Its value is “induced a rapid [Ca2+]i transient”.

Q: What about the “Adhesion of calreticulin knock-out cells to fibronectin” value ([1]; 100 nM) of the same compound?
A: Its value is “significantly restored”.

Q: And the “Dose dependence of the adhesion response of calreticulin knock-out cells” value ([1]; data not shown in FIG. 4)?
A: Its value is “dose-dependent”.

Q: How did the “Net Ca2+ release after prior LPA” value (ES cells; added after LPA) turn out when `C/C=C(/C)C(=O)O[C@H]1C(C)=C2[C@H]([C@@H]1OC(=O)CCCCCCC)[C@@](C)(OC(C)=O)C[C@H](OC(=O)CCC)[C@@]1(O)[C@H]2OC(=O)[C@@]1(C)O` [thapsigargin] was run?
A: The value was “induced a second, smaller burst of net Ca^2+ release”.

Q: GRGDSP [GRGDSP peptides, (Gibco/BRL)] was tested. Which “Wild-type ES cell adhesion to fibronectin” value (wild-type ES cells) did it give?
A: Its value is “inhibited adhesion to fibronectin”.
